{
  "source": "patent US7585895B2",
  "about": "“Therapeutic substituted cyclopentanes” (Allergan, Inc., priority 2005, dated 2009)",
  "key": {"hTP": {"molecular_target": "T1, hTP (Homo sapiens, UniProt P21731)", "T1 construct": "expressed in transfected cells", "T1 sequence (P21731 1-343)": "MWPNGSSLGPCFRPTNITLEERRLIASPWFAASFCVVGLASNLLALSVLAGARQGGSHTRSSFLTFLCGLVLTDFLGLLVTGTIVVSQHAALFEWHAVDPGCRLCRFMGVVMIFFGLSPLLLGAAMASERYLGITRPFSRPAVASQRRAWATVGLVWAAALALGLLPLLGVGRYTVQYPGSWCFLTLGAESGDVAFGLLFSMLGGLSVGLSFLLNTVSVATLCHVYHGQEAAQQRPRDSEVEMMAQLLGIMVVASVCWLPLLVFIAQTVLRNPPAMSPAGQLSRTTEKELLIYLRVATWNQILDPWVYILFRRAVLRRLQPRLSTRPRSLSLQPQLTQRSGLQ", "assay": "FLIPR calcium signal, TP", "type": "cell-based", "conditions": "HEK-293(EBNA)", "description": "HEK-293(EBNA) cells, stably expressing one type or subtype of recombinant human prostaglandin receptors (prostaglandin receptors expressed: hDP/Gqs5; hEP1; hEP2/Gqs5; hEP3A/Gqi5; hEP4/Gqs5; hFP; hIP; hTP), were cultured in 100 mm culture dishes in high-glucose DMEM medium containing 10% fetal bovine serum, 2 mM 1-glutamine, 250 μg/ml geneticin (G418) and 200 μg/ml hygromycin B as selection markers, and 100 units/ml penicillin G, 100 μg/ml streptomycin and 0.25 μg/ml amphotericin B.\nCells were seeded at a density of 5×10^4 cells per well in Biocoat® Poly-D-lysine-coated black-wall, clear-bottom 96-well plates (Becton-Dickinson) and allowed to attach overnight in an incubator at 37° C. Cells were then washed two times with HBSS-HEPES buffer (Hanks Balanced Salt Solution without bicarbonate and phenol red, 20 mM HEPES, pH 7.4) using a Denley Cellwash plate washer (Labsystems). After 45 minutes of dye-loading in the dark, using the calcium-sensitive dye Fluo-4 AM at a final concentration of 2 μM, plates were washed four times with HBSS-HEPES buffer to remove excess dye leaving 100 μl in each well. Plates were re-equilibrated to 37° C. for a few minutes.\nCells were excited with an Argon laser at 488 nm, and emission was measured through a 510-570 nm bandwidth emission filter (FLIPR™, Molecular Devices, Sunnyvale, Calif.). Drug solution was added in a 50 μl volume to each well to give the desired final concentration. The peak increase in fluorescence intensity was recorded for each well. On each plate, four wells each served as negative (HBSS-HEPES buffer) and positive controls (standard agonists: BW245C (hDP); PGE2 (HEP1; hEP2/Gqs5; hEP3A/Gqi5; hEP4/Gqs5); PGF2α (hFP); carbacyclin (hIP); U-46619 (hTP), depending on receptor). The peak fluorescence change in each drug-containing well was then expressed relative to the controls.\nCompounds were tested in a high-throughput (HTS) or concentration-response (CoRe) format. In the HTS format, forty-four compounds per plate were examined in duplicates at a concentration of 10^−5 M. To generate concentration-response curves, four compounds per plate were tested in duplicates in a concentration range between 10^−5 and 10^−11 M. The duplicate values were averaged. In either, HTS or CoRe format each compound was tested on at least 3 separate plates using cells from different passages to give an n≧3."}, "EP2": {"molecular_target": "EP2 (Homo sapiens, UniProt P43116)", "sequence (P43116 whole entry)": "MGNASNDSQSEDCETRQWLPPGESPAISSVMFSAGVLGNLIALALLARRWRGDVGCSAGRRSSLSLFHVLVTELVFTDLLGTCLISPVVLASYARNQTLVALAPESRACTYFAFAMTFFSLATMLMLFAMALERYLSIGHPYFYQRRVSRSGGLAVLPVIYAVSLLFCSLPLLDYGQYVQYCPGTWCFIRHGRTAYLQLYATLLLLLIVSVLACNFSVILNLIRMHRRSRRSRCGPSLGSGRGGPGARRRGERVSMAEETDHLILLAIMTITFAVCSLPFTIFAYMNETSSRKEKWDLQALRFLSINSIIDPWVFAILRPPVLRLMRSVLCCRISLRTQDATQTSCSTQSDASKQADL", "assay": "Competition binding, [3H]PGE2, EP2 (Ki)", "design": "expressed in transfected cells; membranes or whole cells", "conditions": "HEK 293 cells stably expressing human EP2, [3H]PGE2", "description": "Competition binding experiments were performed in a medium containing Hank's balanced salt solution, Hepes 20 mM, pH 7.3, membranes (˜60 μg protein) or 2×10^5 cells from HEK 293 cells stably expressing human EP2 receptors, [^3H]PGE2 (10 nM) and various concentrations of test compounds in a total volume of 300 μl. Reaction mixtures were incubated at 23° C. for 60 min, and were filtered over Whatman GF/B filters under vacuum. Filters were washed three times with 5 ml ice-cold buffer containing 50 mM Tris/HCl (pH 7.3). Non-specific binding was estimated in the presence of excess unlabeled PGE2 (10 μM). Binding data fitted to the binding model for a single class of binding sites, using nonlinear regression analysis. IC50 values thus obtained were converted to Ki using the equation of Ki=(IC50/(1+[L]/KD) where [L] represents PGE2 concentration (10 nM) and KD the dissociation constant for [^3H]PGE2 at human EP2 receptors (40 nM).\nHEK-293 cells stably expressing the human or feline FP receptor, or EP1, EP2, or EP4 receptors were washed with TME buffer, scraped from the bottom of the flasks, and homogenized for 30 sec using a Brinkman PT 10/35 polytron. TME buffer was added to achieve a final 40 ml volume in the centrifuge tubes (the composition of TME is 100 mM TRIS base, 20 mM MgCl2, […]; 10N HCl is added to achieve a pH of 7.4).\nThe cell homogenate was centrifuged at 19000 r.p.m. for 20 min at 4° C using a Beckman Ti-60 rotor. The resultant pellet was resuspended in TME buffer to give a final 1 mg/ml protein concentration, as determined by Biorad assay. Radioligand binding competition assays vs. [^3H-]17-phenyl PGF2α. (5 nM) were performed in a 100 μl volume for 60 min. Binding reactions were started by adding plasma membrane fraction. The reaction was terminated by the addition of 4 ml ice-cold TRIS-HCl buffer and rapid filtration through glass fiber GF/B filters using a Brandel cell harvester. The filters were washed 3 times with ice-cold buffer and oven dried for one hour.\n[^3H-] PGE2 (specific activity 180 Ci mmol) was used as the radioligand for EP receptors. [^3H] 17-phenyl PGF2α, was employed for FP receptor binding studies. Binding studies employing EP1, EP2, EP4 and FP receptors were performed in duplicate in at least three separate experiments. A 200 μl assay volume was used. Incubations were for 60 min at 25° C. and were terminated by the addition of 4 ml of ice-cold 50 mM TRIS-HCl, followed by rapid filtration through Whatman GF/B filters and three additional 4 ml washes in a cell harvester (Brandel). Competition studies were performed using a final concentration of 5 nM [^3H]-PGE2, or 5 nM [^3H] 17-phenyl PGF2αand non-specific binding determined with 10^−5M of unlabeled PGE2, or 17-phenyl PGF2α, according to receptor subtype studied."}},
  "data": [
    {"compound": "CCCC(O)c1ccc([C@@H]2[C@@H](C/C=C\\CCCC(=O)O)[C@H](Cl)C[C@H]2O)cc1", "note": "(stereo partly drawn) [Entry 26, (Z)-7-{(1R,2S,3R,5R)-5-Chloro-3-hydroxy-2-[4-(1-hydroxy-butyl)-phenyl]-cyclopentyl}-hept-5-enoic acid]", "values": [
      {"measurement": "Ca2+ Signal-EC50 (nM) TP", "setting": "hTP", "value": "not active"},
      {"measurement": "Ki", "setting": "EP2", "value": 1660, "unit": "nM"}
    ]},
    {"compound": "O=C(O)CCC/C=C\\C[C@@H]1[C@@H](c2ccc(C(O)Cc3ccccc3)cc2)[C@H](O)C[C@H]1Cl", "note": "(mixture of isomers) [Entry 21, (Z)-7-{(1R,2S,3R,5R)-5-Chloro-3-hydroxy-2-[4-(1-hydroxy-2-phenyl-ethyl)-phenyl]-cyclopentyl}-hept-5-enoic acid]", "values": [
      {"measurement": "Ca2+ Signal-EC50 (nM) TP", "setting": "hTP", "value": "not active"},
      {"measurement": "Ki", "setting": "EP2", "value": 77, "unit": "nM"}
    ]},
    {"compound": "O=C(O)CCC/C=C\\C[C@@H]1[C@@H](c2ccc(C(O)CCc3ccccc3)cc2)[C@H](O)C[C@H]1Cl", "note": "(stereo partly drawn) [Entry 23, (Z)-7-{(1R,2S,3R,5R)-5-Chloro-3-hydroxy-2-[4-(1-hydroxy-3-phenyl-propyl)-phenyl]-cyclopentyl}-hept-5-enoic acid]", "values": [
      {"measurement": "Ca2+ Signal-EC50 (nM) TP", "setting": "hTP", "value": "not active"},
      {"measurement": "Ki", "setting": "EP2", "value": 1130, "unit": "nM"}
    ]},
    {"compound": "CCCCCC(O)c1ccc([C@@H]2[C@@H](CCCc3ncc(C(=O)O)s3)[C@H](Cl)C[C@H]2O)cc1", "note": "(stereo partly drawn) [Entry 5, 2-(3-{(1R,2S,3R,5R)-5-Chloro-3-hydroxy-2-[4-(1-hydroxy-hexyl)-phenyl]-cyclopentyl}-propyl)-thiazole-5-carboxylic acid]", "values": [
      {"measurement": "Ca2+ Signal-EC50 (nM) TP", "setting": "hTP", "value": "not active"},
      {"measurement": "Ki", "setting": "EP2", "value": 6170, "unit": "nM"}
    ]},
    {"compound": "CCCCCC(O)c1ccc([C@@H]2[C@@H](C/C=C\\CCCC(=O)O)[C@H](Cl)C[C@H]2O)cc1", "note": "(single isomer, unassigned) [Entry 12]", "values": [
      {"measurement": "Ca2+ Signal-EC50 (nM) TP", "setting": "hTP", "value": "not active"},
      {"measurement": "Ki", "setting": "EP2", "value": 209, "unit": "nM"}
    ]},
    {"compound": "CCCC1(C(O)c2cccc([C@@H]3[C@@H](Cc4cccc(CCC(=O)O)c4)[C@H](Cl)C[C@H]3O)c2)CCC1", "note": "(stereo partly drawn) [Entry 4, 3-[3-((1R,2S,3R,5R)-5-Chloro-3-hydroxy-2-{3-[hydroxy-(1-propyl-cyclobutyl)-methyl]-phenyl}-cyclopentylmethyl)-phenyl]-propionic acid]", "values": [
      {"measurement": "Ca2+ Signal-EC50 (nM) TP", "setting": "hTP", "value": "not active"},
      {"measurement": "Ki", "setting": "EP2", "value": "> 10000", "unit": "nM"}
    ]},
    {"compound": "CCCCC(O)c1ccc([C@@H]2[C@@H](C/C=C\\CCCC(=O)O)[C@H](Cl)C[C@H]2O)cc1", "note": "(mixture of isomers) [Entry 27, (Z)-7-{(1R,2S,3R,5R)-5-Chloro-3-hydroxy-2-[4-(1-hydroxy-pentyl)-phenyl]-cyclopentyl}-hept-5-enoic acid]", "values": [
      {"measurement": "Ca2+ Signal-EC50 (nM) TP", "setting": "hTP", "value": "not active"},
      {"measurement": "Ki", "setting": "EP2", "value": 589, "unit": "nM"}
    ]},
    {"compound": "CCCCC(O)C(C)(C)c1ccc([C@@H]2[C@@H](C/C=C\\CCCC(=O)O)[C@H](Cl)C[C@H]2O)cc1", "note": "(mixture of isomers) [Entry 32, (Z)-7-{(1R,2S,3R,5R)-5-Chloro-3-hydroxy-2-[4-(2-hydroxy-1,1-dimethyl-hexyl)-phenyl]-cyclopentyl}-hept-5-enoic acid]", "values": [
      {"measurement": "Ca2+ Signal-EC50 (nM) TP", "setting": "hTP", "value": "not active"},
      {"measurement": "Ki", "setting": "EP2", "value": 225, "unit": "nM"}
    ]},
    {"compound": "O=C(O)CCCCCC[C@@H]1[C@@H](c2ccc(C(O)CCC3CCCCC3)cc2)[C@H](O)C[C@H]1Cl", "note": "(stereo partly drawn) [Entry 16, 7-{(1R,2S,3R,5R)-5-Chloro-2-[4-(3-cyclohexyl-1-hydroxy-propyl)-phenyl]-3-hydroxy-cyclopentyl}-heptanoic acid]", "values": [
      {"measurement": "Ca2+ Signal-EC50 (nM) TP", "setting": "hTP", "value": "not active"},
      {"measurement": "Ki", "setting": "EP2", "value": 1290, "unit": "nM"}
    ]},
    {"compound": "CCCCCC(O)c1ccc([C@@H]2[C@@H](C/C=C\\CCCC(=O)O)[C@H](Cl)C[C@@H]2O)cc1", "note": "(stereo partly drawn) [Entry 34, (Z)-7-{(1R,2S,3S,5R)-5-Chloro-3-hydroxy-2-[4-(1-hydroxy-hexyl)-phenyl]-cyclopentyl}-hept-5-enoic acid]", "values": [
      {"measurement": "EC50", "setting": "hTP; read-out: Ca2+ Signal-EC50 (nM) TP", "value": 6930, "unit": "nM"},
      {"measurement": "Ki", "setting": "EP2", "value": 12, "unit": "nM"}
    ]},
    {"compound": "CCCCCC(O)c1ccc([C@@H]2[C@@H](C/C=C\\CCCC(=O)O)[C@H](Cl)C[C@H]2O)cc1", "note": "(mixture of isomers) [Entry 11, (Z)-7-{(1R,2S,3R,5R)-5-Chloro-3-hydroxy-2-[4-(1-hydroxy-hexyl)-phenyl]-cyclopentyl}-hept-5-enoic acid]", "values": [
      {"measurement": "Ca2+ Signal-EC50 (nM) TP", "setting": "hTP", "value": "not active"},
      {"measurement": "Ki", "setting": "EP2", "value": 209, "unit": "nM"}
    ]},
    {"compound": "CCCCCC(O)C(C)(C)c1ccc([C@@H]2[C@@H](C/C=C\\CCCC(=O)O)[C@H](Cl)C[C@H]2O)cc1", "note": "(stereo partly drawn) [Entry 31, (Z)-7-{(1R,2S,3R,5R)-5-Chloro-3-hydroxy-2-[4-(2-hydroxy-1,1-dimethyl-heptyl)-phenyl]-cyclopentyl}-hept-5-enoic acid]", "values": [
      {"measurement": "Ca2+ Signal-EC50 (nM) TP", "setting": "hTP", "value": "not active"},
      {"measurement": "Ki", "setting": "EP2", "value": 182, "unit": "nM"}
    ]}
  ]
}
